Experimental data: patent publication US7960377B2 (priority 2008, dated 2011)

Legend:
Experiment in all cases: cell-based
human CB2 receptor = human CB2 receptor (Homo sapiens, UniProt P34972); format: cell-based
rat CB2 receptor = target: T1, rat CB2 receptor (Rattus norvegicus, UniProt Q9QZN9); format: cell-based
T1 sequence (Q9QZN9 1-360): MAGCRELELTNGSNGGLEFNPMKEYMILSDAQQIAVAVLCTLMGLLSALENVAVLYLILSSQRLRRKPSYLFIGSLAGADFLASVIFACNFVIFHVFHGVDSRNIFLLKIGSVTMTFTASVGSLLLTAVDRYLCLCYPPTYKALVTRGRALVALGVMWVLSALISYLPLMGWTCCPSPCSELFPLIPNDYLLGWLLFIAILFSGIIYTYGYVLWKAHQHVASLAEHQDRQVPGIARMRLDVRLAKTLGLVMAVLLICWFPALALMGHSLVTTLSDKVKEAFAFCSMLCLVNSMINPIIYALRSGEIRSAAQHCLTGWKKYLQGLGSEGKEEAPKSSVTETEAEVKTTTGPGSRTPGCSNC

human CB1 receptor = human CB1 receptor (Homo sapiens, UniProt P21554)
Sequence of human CB1 receptor (P21554 whole entry): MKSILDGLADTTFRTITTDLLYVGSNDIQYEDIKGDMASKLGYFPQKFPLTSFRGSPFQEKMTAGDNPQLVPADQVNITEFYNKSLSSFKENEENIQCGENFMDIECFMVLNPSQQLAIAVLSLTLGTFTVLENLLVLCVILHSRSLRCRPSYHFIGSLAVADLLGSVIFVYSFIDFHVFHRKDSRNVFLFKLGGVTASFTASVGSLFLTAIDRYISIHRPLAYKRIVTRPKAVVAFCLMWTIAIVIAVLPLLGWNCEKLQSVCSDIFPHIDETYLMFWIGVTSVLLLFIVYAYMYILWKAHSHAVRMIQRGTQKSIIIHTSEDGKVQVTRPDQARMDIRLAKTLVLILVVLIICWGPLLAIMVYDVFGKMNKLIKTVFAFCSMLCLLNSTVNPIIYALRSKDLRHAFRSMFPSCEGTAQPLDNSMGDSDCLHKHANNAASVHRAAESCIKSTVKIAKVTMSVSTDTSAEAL

Sequence of human CB2 receptor (P34972 whole entry): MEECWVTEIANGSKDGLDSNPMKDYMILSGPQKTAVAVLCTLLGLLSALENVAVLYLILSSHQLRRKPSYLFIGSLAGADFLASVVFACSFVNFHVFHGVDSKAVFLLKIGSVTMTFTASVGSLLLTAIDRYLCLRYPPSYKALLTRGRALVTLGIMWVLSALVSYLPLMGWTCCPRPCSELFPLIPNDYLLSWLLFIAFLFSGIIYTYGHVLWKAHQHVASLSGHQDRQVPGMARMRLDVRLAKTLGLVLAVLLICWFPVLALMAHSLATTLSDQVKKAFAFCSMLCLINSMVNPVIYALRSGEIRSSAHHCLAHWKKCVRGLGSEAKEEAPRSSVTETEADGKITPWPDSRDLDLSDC

CCC(C)(C)NC(=O)c1cnc2c(c1)N(S(=O)(=O)N1CC(F)(F)C1)CCO2 [Example 194, 1-(3,3-difluoroazetidin-1-ylsulfonyl)-N-tert-pentyl-2,3-dihydro-1H-pyrido[2,3-b][1,4]oxazine-7-carboxamide]
EC50 (human CB2 receptor): > 30000 nM | EC50 (rat CB2 receptor): ≤ 30 nM | EC50 (human CB1 receptor): > 30000 nM

CCC(C)(C)NC(=O)c1cnc2c(c1)N(S(=O)(=O)N1CCC(F)CC1)CCO2 [Example 167, 1-(4-fluoropiperidin-1-ylsulfonyl)-N-tert-pentyl-2,3-dihydro-1H-pyrido[2,3-b][1,4]oxazine-7-carboxamide]
EC50 (human CB2 receptor): ≤ 30 nM | EC50 (rat CB2 receptor): ≤ 30 nM | EC50 (human CB1 receptor): > 30000 nM

CC(C)(CO)NC(=O)c1cnc2c(c1)N(S(=O)(=O)N1CCC(Cl)CC1)CCO2 [Example 186, 1-(4-chloropiperidin-1-ylsulfonyl)-N-(1-hydroxy-2-methylpropan-2-yl)-2,3-dihydro-1H-pyrido[2,3-b][1,4]oxazine-7-carboxamide]
EC50 (human CB2 receptor): > 30000 nM | EC50 (rat CB2 receptor): ≤ 30 nM | EC50 (human CB1 receptor): > 30000 nM

CC(C)(C)NC(=O)c1cnc2c(c1)N(S(=O)(=O)N1CCC(Cl)CC1)CCO2 [Example 184, N-tert-butyl-1-(4-chloropiperidin-1-ylsulfonyl)-2,3-dihydro-1H-pyrido[2,3-b][1,4]oxazine-7-carboxamide]
EC50 (human CB2 receptor): > 30000 nM | EC50 (rat CB2 receptor): ≤ 30 nM

CC(C)(C)c1cc(NC(=O)c2cnc3c(c2)N(S(=O)(=O)N2CCC(F)(F)C2)CCO3)no1 [Example 165, N-(5-tert-butylisoxazol-3-yl)-1-(3,3-difluoro-pyrrolidin-1-ylsulfonyl)-2,3-dihydro-1H-pyrido-[2,3-b][1,4]oxazine-7-carboxamide]
EC50 (human CB2 receptor): > 30000 nM | inverse agonist mark, rat CB2 receptor (rat CB2 receptor; asterisk at the compound number): 108, 114, 117, 122, 126, 128, 129, 130, 141, 147, 162*, 165*, 179,

CC(C)(C)NC(=O)c1cnc2c(c1)N(S(=O)(=O)c1ccc(Cl)cc1)CCO2 [Example 24, N-tert-butyl-1-(4-chlorophenylsulfonyl)-2,3-dihydro-1H-pyrido[2,3-b][1,4]oxazine-7-carboxamide]
EC50 (human CB2 receptor): ≤ 30 nM | EC50 (rat CB2 receptor): ≤ 30 nM

CC(C)(C)CNC(=O)c1cnc2c(c1)N(S(=O)(=O)c1ccc(F)cc1)CCO2 [Example 11]
EC50 (human CB2 receptor): ≤ 30 nM | EC50 (rat CB2 receptor): ≤ 30 nM

O=C(NC1CCCC1)c1cnc2c(c1)N(S(=O)(=O)c1ccc(Cl)cc1)CCO2 [Example 25, 1-(4-chlorophenyl-sulfonyl)-N-cyclopentyl-2,3-dihydro-1H-pyrido[2,3-b][1,4]oxazine-7-carboxamide]
EC50 (human CB2 receptor): ≤ 30 nM | EC50 (rat CB2 receptor): ≤ 30 nM

CC(C)(CO)CNC(=O)c1cnc2c(c1)N(S(=O)(=O)N1CCC(Cl)CC1)CCO2 [Example 187, 1-(4-chloropiperidin-1-ylsulfonyl)-N-(3-hydroxy-2,2-dimethylpropyl)-2,3-dihydro-1H-pyrido[2,3-b][1,4]oxazine-7-carboxamide]
EC50 (human CB2 receptor): > 30000 nM | EC50 (rat CB2 receptor): ≤ 30 nM

CC(C)(C)NC(=O)c1cnc2c(c1)N(S(=O)(=O)c1ccc(C#N)cc1)CCO2 [Example 3, N-tert-butyl-1-(4-cyanophenylsulfonyl)-2,3-dihydro-1H-pyrido[2,3-b][1,4]oxazine-7-carboxamide]
EC50 (human CB2 receptor): ≤ 30 nM | EC50 (rat CB2 receptor): ≤ 30 nM

CCC(C)(C)NC(=O)c1cnc2c(c1)N(S(=O)(=O)N1CCC(C(F)(F)F)CC1)CCO2 [Example 151, N-tert-pentyl-1-(4-(trifluoromethyl)piperidin-1-ylsulfonyl)-2,3-dihydro-1H-pyrido[2,3-b][1,4]oxazine-7-carboxamide]
EC50 (human CB2 receptor): ≤ 30 nM | EC50 (rat CB2 receptor): ≤ 30 nM

CC(C)(CO)CNC(=O)c1cnc2c(c1)N(S(=O)(=O)N1CC(F)(F)C1)CCO2 [Example 196, 1-(3,3-difluoroazetidin-1-ylsulfonyl)-N-(3-hydroxy-2,2-dimethylpropyl)-2,3-dihydro-1H-pyrido[2,3-b][1,4]oxazine-7-carboxamide]
EC50 (human CB2 receptor): > 30000 nM | EC50 (rat CB2 receptor): ≤ 30 nM
